Assay results reported in ChEMBL document CHEMBL4177526, “Discovery and structure activity relationship of the first potent cryptosporidium FIKK kinase inhibitor” (Bioorg Med Chem, 2017).

Tests used:
[1] = biological target: Serine/threonine-protein kinase tousled-like 1 (Homo sapiens) (UniProt Q9UKI8); test: Inhibition of human TLK1 (1 to 766 residues) assessed as residual activity at 500 nM in presence of 33P-ATP by filter binding assay relative to control
[2] = biological target: RAC-beta serine/threonine-protein kinase (Homo sapiens) (UniProt P31751); test: Inhibition of human PKBbeta (120 to 481 residues) assessed as residual activity at 500 nM in presence of 33P-ATP by filter binding assay relative to control
[3] = biological target: Serine/threonine-protein kinase pim-3 (Homo sapiens) (UniProt Q86V86); test: Inhibition of human PIM3 (2 to 326 residues) assessed as residual activity at 500 nM in presence of 33P-ATP by filter binding assay relative to control
[4] = biological target: Serine/threonine-protein kinase Chk2 (Homo sapiens) (UniProt O96017); test: Inhibition of human CHK2 (5 to 543 residues) assessed as residual activity at 500 nM in presence of 33P-ATP by filter binding assay relative to control
[5] = biological target: High affinity nerve growth factor receptor (Homo sapiens) (UniProt P04629); test: Inhibition of human TRKA (441 to 760 residues) assessed as residual activity at 500 nM in presence of 33P-ATP by filter binding assay relative to control
[6] = biological target: Casein kinase I isoform gamma-2 (Homo sapiens) (UniProt P78368); test: Inhibition of human CK1gamma2 (1 to 415 residues) assessed as residual activity at 500 nM in presence of 33P-ATP by filter binding assay relative to control
[7] = biological target: Dual specificity tyrosine-phosphorylation-regulated kinase 1A (Homo sapiens) (UniProt Q13627); test: Inhibition of human DYRK1A (1 to 502 residues) assessed as residual activity at 500 nM in presence of 33P-ATP by filter binding assay relative to control
[8] = biological target: Serine/threonine-protein kinase BRSK2 (Homo sapiens) (UniProt Q8IWQ3); test: Inhibition of human BRSK2 (2 to 674 residues) assessed as residual activity at 500 nM in presence of 33P-ATP by filter binding assay relative to control
[9] = biological target: Serine/threonine-protein kinase 26 (Homo sapiens) (UniProt Q9P289); test: Inhibition of human MST4 (1 to 416 residues) assessed as residual activity at 500 nM in presence of 33P-ATP by filter binding assay relative to control
[10] = biological target: MAP kinase-activated protein kinase 3 (Homo sapiens) (UniProt Q16644); test: Inhibition of human MAPKAPK3 (2 to 382 residues) assessed as residual activity at 500 nM in presence of 33P-ATP by filter binding assay relative to control
[11] = biological target: Eukaryotic elongation factor 2 kinase (Homo sapiens) (UniProt O00418); test: Inhibition of human EF2K (2 to 725 residues) assessed as residual activity at 500 nM in presence of 33P-ATP by filter binding assay relative to control
[12] = biological target: Tyrosine-protein kinase JAK2 (Homo sapiens) (UniProt O60674); test: Inhibition of JAK2 (unknown origin) assessed as residual activity at 500 nM relative to control
[13] = biological target: Mitogen-activated protein kinase kinase kinase 1 (Homo sapiens) (UniProt Q13233); test: Inhibition of human MEKK1 (877 to 1563 residues) assessed as residual activity at 500 nM in presence of 33P-ATP by filter binding assay relative to control
[14] = biological target: Rho-associated protein kinase 2 (Homo sapiens) (UniProt O75116); test: Inhibition of human ROCK2 (2 to 543 residues) assessed as residual activity at 500 nM in presence of 33P-ATP by filter binding assay relative to control
[15] = Inhibition of recombinant Cryptosporidium parvum FIKK using RRRAPSFYRK peptide as substrate by NADH coupled LDH-PK ATPase assay
[16] = biological target: Serine/threonine-protein kinase ULK1 (Homo sapiens) (UniProt O75385); test: Inhibition of human ULK1 (2 to 1050 residues) assessed as residual activity at 500 nM in presence of 33P-ATP by filter binding assay relative to control
[17] = biological target: Ephrin type-B receptor 4 (Homo sapiens) (UniProt P54760); test: Inhibition of human EPHB4 (561 to 987 residues) assessed as residual activity at 500 nM in presence of 33P-ATP by filter binding assay relative to control
[18] = biological target: Vascular endothelial growth factor receptor 2 (Homo sapiens) (UniProt P35968); test: Inhibition of human VEGFR2 (unknown origin) at 500 nM relative to control
[19] = biological target: Tyrosine-protein kinase SYK (Homo sapiens) (UniProt P43405); test: Inhibition of human SYK (1 to 635 residues) assessed as residual activity at 500 nM in presence of 33P-ATP by filter binding assay relative to control
[20] = biological target: SRSF protein kinase 1 (Homo sapiens) (UniProt Q96SB4); test: Inhibition of human SRPK1 (2 to 654 residues) assessed as residual activity at 500 nM in presence of 33P-ATP by filter binding assay relative to control
[21] = biological target: Dual specificity tyrosine-phosphorylation-regulated kinase 2 (Homo sapiens) (UniProt Q92630); test: Inhibition of human DYRK2 (3 to 528 residues) assessed as residual activity at 500 nM in presence of 33P-ATP by filter binding assay relative to control
[22] = biological target: Insulin-like growth factor 1 receptor (Homo sapiens) (UniProt P08069); test: Inhibition of human IGF1R (954 to 1367 residues) assessed as residual activity at 500 nM in presence of 33P-ATP by filter binding assay relative to control
[23] = biological target: Interleukin-1 receptor-associated kinase 4 (Homo sapiens) (UniProt Q9NWZ3); test: Inhibition of human IRAK4 (14 to 460 residues) assessed as residual activity at 500 nM in presence of 33P-ATP by filter binding assay relative to control
[24] = biological target: 3-phosphoinositide-dependent protein kinase 1 (Homo sapiens) (UniProt O15530); test: Inhibition of human PDK1 (52 to 556 residues) assessed as residual activity at 500 nM in presence of 33P-ATP by filter binding assay relative to control
[25] = biological target: MAP/microtubule affinity-regulating kinase 4 (Homo sapiens) (UniProt Q96L34); test: Inhibition of human MARK4 (1 to 367 residues) assessed as residual activity at 500 nM in presence of 33P-ATP by filter binding assay relative to control
[26] = system: Serine/threonine-protein kinase PAK 2 (Homo sapiens), Q13177 [T402E]; test: Inhibition of human PAK2 T402E mutant (1 to 524 residues) assessed as residual activity at 500 nM in presence of 33P-ATP by filter binding assay relative to control

Chain of MAP/microtubule affinity-regulating kinase 4 (Homo sapiens) (Q96L34 whole entry, the tested form may be a part): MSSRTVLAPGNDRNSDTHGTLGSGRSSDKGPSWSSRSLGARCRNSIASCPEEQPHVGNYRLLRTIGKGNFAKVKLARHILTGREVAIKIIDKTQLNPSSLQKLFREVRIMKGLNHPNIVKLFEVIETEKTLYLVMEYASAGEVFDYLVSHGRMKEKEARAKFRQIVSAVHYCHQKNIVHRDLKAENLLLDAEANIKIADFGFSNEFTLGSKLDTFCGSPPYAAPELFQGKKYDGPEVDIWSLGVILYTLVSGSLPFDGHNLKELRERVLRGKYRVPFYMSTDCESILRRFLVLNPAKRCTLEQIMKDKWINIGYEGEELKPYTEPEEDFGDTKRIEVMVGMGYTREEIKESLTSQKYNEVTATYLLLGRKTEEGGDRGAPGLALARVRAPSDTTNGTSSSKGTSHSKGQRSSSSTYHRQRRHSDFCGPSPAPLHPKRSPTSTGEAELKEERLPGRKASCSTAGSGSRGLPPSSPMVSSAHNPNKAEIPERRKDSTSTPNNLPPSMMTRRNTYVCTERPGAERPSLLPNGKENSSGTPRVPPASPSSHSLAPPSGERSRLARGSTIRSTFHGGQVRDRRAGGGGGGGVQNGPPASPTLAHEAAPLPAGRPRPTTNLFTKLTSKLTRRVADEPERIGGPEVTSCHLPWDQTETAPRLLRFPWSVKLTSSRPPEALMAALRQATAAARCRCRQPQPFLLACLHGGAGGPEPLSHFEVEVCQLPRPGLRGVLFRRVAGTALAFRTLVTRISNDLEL
Chain of Serine/threonine-protein kinase ULK1 (Homo sapiens) (O75385 whole entry, the tested form may be a part): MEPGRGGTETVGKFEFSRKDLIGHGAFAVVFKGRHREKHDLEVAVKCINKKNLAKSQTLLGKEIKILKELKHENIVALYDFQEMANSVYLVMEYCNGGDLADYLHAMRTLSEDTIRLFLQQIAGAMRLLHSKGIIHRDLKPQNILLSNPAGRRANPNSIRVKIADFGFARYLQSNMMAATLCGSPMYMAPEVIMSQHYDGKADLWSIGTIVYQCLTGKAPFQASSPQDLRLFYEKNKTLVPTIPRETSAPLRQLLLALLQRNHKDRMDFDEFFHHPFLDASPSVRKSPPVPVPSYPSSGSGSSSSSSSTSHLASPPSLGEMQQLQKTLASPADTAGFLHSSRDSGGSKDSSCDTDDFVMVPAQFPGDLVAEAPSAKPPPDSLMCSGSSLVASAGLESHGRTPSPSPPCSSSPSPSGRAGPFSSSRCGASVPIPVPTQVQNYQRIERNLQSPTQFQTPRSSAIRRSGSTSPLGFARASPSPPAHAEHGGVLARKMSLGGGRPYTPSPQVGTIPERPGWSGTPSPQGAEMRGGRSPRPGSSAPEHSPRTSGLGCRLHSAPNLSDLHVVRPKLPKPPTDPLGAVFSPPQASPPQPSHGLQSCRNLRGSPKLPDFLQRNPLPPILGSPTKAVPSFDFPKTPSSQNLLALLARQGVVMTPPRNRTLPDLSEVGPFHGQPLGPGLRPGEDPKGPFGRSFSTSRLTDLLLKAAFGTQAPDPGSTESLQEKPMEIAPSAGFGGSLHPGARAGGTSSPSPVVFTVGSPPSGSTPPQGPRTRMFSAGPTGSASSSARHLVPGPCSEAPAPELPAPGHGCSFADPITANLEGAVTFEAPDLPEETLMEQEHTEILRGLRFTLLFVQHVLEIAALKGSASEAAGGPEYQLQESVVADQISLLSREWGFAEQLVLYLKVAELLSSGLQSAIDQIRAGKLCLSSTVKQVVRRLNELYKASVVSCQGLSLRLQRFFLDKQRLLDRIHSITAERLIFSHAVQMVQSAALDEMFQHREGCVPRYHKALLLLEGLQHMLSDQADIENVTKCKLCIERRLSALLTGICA
Chain of Vascular endothelial growth factor receptor 2 (Homo sapiens) (P35968 whole entry, looked up, the tested form may be a part): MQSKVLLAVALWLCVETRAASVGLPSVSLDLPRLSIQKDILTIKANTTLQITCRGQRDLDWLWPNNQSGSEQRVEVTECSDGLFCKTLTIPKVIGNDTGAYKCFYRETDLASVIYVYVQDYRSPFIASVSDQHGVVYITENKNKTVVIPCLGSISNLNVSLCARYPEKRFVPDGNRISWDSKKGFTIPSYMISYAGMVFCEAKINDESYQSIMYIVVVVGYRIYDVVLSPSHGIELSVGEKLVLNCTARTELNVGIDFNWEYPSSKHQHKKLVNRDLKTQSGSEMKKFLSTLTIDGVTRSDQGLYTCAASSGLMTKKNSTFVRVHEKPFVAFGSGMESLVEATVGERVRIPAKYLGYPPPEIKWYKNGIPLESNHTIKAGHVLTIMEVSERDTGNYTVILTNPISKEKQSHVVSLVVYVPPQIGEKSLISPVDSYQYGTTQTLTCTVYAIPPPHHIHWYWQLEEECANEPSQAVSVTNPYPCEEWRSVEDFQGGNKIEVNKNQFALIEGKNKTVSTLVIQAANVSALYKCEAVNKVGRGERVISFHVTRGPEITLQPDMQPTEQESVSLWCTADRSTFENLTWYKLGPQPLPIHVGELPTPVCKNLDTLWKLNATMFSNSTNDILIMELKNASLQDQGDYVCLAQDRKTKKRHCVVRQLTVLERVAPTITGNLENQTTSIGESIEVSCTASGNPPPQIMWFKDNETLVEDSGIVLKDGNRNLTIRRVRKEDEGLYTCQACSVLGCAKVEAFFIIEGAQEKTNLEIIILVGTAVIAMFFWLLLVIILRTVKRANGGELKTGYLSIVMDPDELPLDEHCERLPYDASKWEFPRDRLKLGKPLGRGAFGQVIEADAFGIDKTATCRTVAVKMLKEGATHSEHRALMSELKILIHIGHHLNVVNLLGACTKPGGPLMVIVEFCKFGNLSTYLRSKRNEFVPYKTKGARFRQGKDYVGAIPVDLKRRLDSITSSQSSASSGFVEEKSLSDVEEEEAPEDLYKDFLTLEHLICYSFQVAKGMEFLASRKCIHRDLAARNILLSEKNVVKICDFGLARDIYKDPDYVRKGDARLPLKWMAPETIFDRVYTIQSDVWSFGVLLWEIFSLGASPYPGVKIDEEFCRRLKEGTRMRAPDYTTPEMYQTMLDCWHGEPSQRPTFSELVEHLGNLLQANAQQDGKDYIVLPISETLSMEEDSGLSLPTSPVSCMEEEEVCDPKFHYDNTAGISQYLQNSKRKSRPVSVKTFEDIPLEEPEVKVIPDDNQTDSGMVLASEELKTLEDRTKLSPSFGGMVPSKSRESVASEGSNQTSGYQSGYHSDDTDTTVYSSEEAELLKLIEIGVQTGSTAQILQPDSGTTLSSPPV
Chain of Rho-associated protein kinase 2 (Homo sapiens) (O75116 whole entry, looked up, the tested form may be a part): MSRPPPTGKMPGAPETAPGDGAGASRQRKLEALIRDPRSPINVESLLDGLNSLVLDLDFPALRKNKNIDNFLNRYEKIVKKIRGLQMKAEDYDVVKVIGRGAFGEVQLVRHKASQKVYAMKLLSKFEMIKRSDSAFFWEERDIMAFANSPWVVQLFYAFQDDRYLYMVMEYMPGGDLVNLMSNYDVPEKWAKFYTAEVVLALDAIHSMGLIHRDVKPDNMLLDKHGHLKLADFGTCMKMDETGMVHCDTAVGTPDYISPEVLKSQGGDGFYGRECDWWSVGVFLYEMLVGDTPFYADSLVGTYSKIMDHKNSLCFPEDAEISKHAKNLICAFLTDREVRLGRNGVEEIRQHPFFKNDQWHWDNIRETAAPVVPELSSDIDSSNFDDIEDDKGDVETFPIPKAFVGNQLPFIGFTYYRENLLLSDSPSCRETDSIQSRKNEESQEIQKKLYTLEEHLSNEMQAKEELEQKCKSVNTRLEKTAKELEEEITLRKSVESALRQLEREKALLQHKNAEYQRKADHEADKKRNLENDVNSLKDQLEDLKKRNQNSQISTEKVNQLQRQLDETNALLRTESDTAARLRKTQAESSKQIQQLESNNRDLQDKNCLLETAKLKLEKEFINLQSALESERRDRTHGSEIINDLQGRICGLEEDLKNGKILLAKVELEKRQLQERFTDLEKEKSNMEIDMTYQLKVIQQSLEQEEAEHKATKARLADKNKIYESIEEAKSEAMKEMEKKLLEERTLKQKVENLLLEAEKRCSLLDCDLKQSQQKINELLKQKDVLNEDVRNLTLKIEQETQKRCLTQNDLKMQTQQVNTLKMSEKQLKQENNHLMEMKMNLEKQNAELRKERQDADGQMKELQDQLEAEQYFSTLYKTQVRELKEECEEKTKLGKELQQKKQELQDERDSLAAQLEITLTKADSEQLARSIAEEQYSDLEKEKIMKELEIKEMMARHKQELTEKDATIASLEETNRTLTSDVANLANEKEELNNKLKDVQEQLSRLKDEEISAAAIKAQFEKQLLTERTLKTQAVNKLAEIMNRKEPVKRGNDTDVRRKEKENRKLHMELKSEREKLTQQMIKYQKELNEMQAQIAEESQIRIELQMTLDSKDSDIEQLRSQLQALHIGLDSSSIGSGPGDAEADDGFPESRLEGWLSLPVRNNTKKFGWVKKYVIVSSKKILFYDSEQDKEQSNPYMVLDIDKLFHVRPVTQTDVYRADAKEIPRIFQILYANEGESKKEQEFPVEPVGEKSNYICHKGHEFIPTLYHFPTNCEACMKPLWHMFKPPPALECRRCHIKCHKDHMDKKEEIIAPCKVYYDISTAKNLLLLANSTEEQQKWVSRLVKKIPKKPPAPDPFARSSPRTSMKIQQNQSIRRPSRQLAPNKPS
Chain of Interleukin-1 receptor-associated kinase 4 (Homo sapiens) (Q9NWZ3 whole entry, the tested form may be a part): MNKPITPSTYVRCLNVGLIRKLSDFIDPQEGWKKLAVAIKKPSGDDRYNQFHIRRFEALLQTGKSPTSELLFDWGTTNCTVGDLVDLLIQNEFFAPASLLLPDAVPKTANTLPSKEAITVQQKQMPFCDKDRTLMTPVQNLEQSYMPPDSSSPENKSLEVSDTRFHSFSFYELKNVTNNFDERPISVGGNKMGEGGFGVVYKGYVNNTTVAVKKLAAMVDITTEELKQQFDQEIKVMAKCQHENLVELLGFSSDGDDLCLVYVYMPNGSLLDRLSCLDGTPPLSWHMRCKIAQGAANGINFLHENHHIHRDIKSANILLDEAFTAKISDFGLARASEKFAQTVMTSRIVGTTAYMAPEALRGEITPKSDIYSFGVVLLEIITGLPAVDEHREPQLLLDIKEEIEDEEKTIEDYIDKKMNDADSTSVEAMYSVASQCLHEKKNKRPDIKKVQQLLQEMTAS

Work on `Cc1cccc(-c2nc(N)sc2-c2ccc3ncccc3n2)c1` yielded an Activity [1] of 121%, an Activity [2] of 127% and an Activity [3] of 91%. It also gave an Activity [4] of 101%, an Activity [5] of 97% and an Activity [6] of 113%. For the same molecule, the Activity [7] was 132%, the Activity [8] was 89% and the Activity [9] was 113%. It also gave an Activity [10] of 100%, an Activity [11] of 115% and an Activity [12] of 125%. For the same molecule, the Activity [13] was 119%, the Activity [14] was 112% and the IC50 [15] was 0.2 nM. The Activity [16] was 106%, the Activity [17] was 99% and the inhibition [18] was 59%. It also gave an Activity [19] of 95%, an Activity [20] of 112% and an Activity [21] of 116%. It also gave an Activity [22] of 104%, an Activity [23] of 110% and an Activity [24] of 118%. The Activity [25] was 116% and the Activity [26] was 103%.
